In publication PMC5011342, “A high throughput drug screening assay to identify compounds that promote oligodendrocyte differentiation using acutely dissociated and purified oligodendrocyte precursor cells” (BMC Research Notes, 2016):
Where two headings read alike, the source gives them in different places.

What was measured:
expanded OPCs = experiment: cells; conditions: for viability at 0.1 µM / viability at 1 µM / viability at 10 µM: Rattus norvegicus, 72 h; for 0.1 µM (% DMSO) / 1 µM (% DMSO) / 10 µM (% DMSO): alamarBlue viability of expanded OPCs, relative to DMSO control; for 0.1 µM (% DMSO): compound at 0.1 µM; for 1 µM (% DMSO): compound at 1 µM; for 10 µM (% DMSO): compound at 10 µM
Procedure, shortened: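 Expanded OPCs seeded at 10,000 cells/well in differentiation media, then exposed to NCC library compounds at 10, 1 and 0.1 µM (quadruplicate, 0.1% DMSO) for three days. Viability read as alamarBlue fluorescence (560/590 nm) after 4 h at 37 °C; tunicamycin 5 ng/ml served as toxicity control.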

[1] = system: acutely dissociated and purified rat OPCs; experiment: Acute OL differentiation assay (MBP expression/cell, immunofluorescent image quantification); format: cell-based; conditions: Rattus norvegicus, sheet "All OLga data"; for activation at 0.4 µM: 0.4 uM test compound, read-out: OL differentiation, 0.4 uM (% Quet)
Procedure, shortened: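 Oligodendrocyte precursor cells were enriched from P6-P7 Sprague–Dawley rat brains by immunopanning (RAN-2 and GalC depletion, O4 selection), plated at 5000 cells/well in serum-free, mitogen-free differentiation media on PDL/laminin 96-well view plates, centrifuged at 200×g, and pre-incubated 1–2 h before test compounds were added in quadruplicate. On DIV4, cells were fixed, stained for MBP and DAPI, imaged automatically, and MBP expression per cell was quantified.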

[2] = read-out: 0.1 µM (% DMSO), alamarBlue viability of expanded OPCs, compound at 0.1 µM, sheet All Tox data
[3] = read-out: 1 µM (% DMSO), alamarBlue viability of expanded OPCs, compound at 1 µM, sheet All Tox data
[4] = read-out: 10 µM (% DMSO), alamarBlue viability of expanded OPCs, compound at 10 µM, sheet All Tox data
[5] = 2 uM test compound, relative to quetiapine, read-out: OL differentiation, 2 uM (% Quet)
[6] = test compound at 2 uM, NCC library screen, relative to quetiapine, read-out: 2 uM (% Quet)
[7] = test compound at 10 uM, NCC library screen, relative to quetiapine, read-out: 10 uM (% Quet)
[8] = read-out: 0.1 µM (% DMSO), alamarBlue viability, NCC library compound at 0.1 µM, sheet "All Tox data"
[9] = read-out: 1 µM (% DMSO), alamarBlue viability, NCC library compound at 1 µM, sheet "All Tox data"
[10] = read-out: 10 µM (% DMSO), alamarBlue viability, NCC library compound at 10 µM, sheet "All Tox data"
[11] = 10 uM test compound, relative to quetiapine, read-out: OL differentiation, 10 uM (% Quet)
[12] = test compound at 2 uM, MBP expression relative to quetiapine, NCC library screen, read-out: 2 uM (% Quet)
[13] = test compound at 10 uM, MBP expression relative to quetiapine, NCC library screen, read-out: 10 uM (% Quet)

Row | SMILES | viability at 0.1 µM (expanded OPCs; [2]) | viability at 1 µM (expanded OPCs; [3]) | viability at 10 µM (expanded OPCs; [4]) | activation at 2 µM [1, 5] | viability at 0.1 µM (expanded OPCs; [8]) | viability at 1 µM (expanded OPCs; [9]) | viability at 10 µM (expanded OPCs; [10]) | activation at 10 µM [1, 11] | also measured
1 | C#C[C@]1(O)CC[C@H]2[C@@H]3CCc4cc(O)ccc4[C@H]3CC[C@@]21C [Ethinyl Estradiol] | 81% | 88% | 43.9% | -2.6% | – | – | – | – | activation at 0.4 µM ([1]; relative to quetiapine): 7.3%
2 | CCc1cc(C(N)=S)ccn1 [Ethionamide] | – | – | – | – | – | – | – | – | 0.1 µM (% DMSO) (expanded OPCs): 89.6 % DMSO; 1 µM (% DMSO) (expanded OPCs): 86.5 % DMSO; 10 µM (% DMSO) (expanded OPCs): 79.6 % DMSO; activation at 2 µM [1, 6]: -7.9%; activation at 10 µM [1, 7]: 7.6%
3 | CC[C@]1(O)CC[C@H]2[C@@H]3CCC4=CCCC[C@@H]4[C@H]3CC[C@@]21C [Ethylestrenol] | – | – | – | – | 98% | 96.1% | 54.2% | – | activation at 2 µM [1, 6]: -2.2%; activation at 10 µM [1, 7]: -45.5%
4 | CCC(C(N)=O)N1CCCC1=O (stereo not drawn) [Etiracetam] | 86.3% | 90.6% | 91.7% | -3.1% | – | – | – | -6.3% | –
5 | CCc1cccc2c3c([nH]c12)C(CC)(CC(=O)O)OCC3 (stereo not drawn) [Etodolac] | – | – | – | – | – | – | – | – | 0.1 µM (% DMSO) (expanded OPCs): 98.7 % DMSO; 1 µM (% DMSO) (expanded OPCs): 88.3 % DMSO; 10 µM (% DMSO) (expanded OPCs): 92.3 % DMSO; activation at 2 µM [1, 12]: 20.9%; activation at 10 µM [1, 13]: 7.5%
6 | CCOC(=O)c1cncn1[C@H](C)c1ccccc1 [Etomidate] | – | – | – | – | 101% | 87.4% | 83% | – | 0.1 µM (% DMSO) (expanded OPCs): 89.9 % DMSO; 1 µM (% DMSO) (expanded OPCs): 87.4 % DMSO; 10 µM (% DMSO) (expanded OPCs): 88.3 % DMSO; activation at 2 µM [1, 12]: 10.1%; activation at 2 µM [1, 6]: -2.5%; activation at 10 µM [1, 13]: -7.1%; activation at 10 µM [1, 7]: -8.3%
7 | CCOC(=O)[C@@]1(CCCCCCOc2ccc(Cl)cc2)CO1 [Etomoxir] | 85.7% | 92.3% | 86.2% | 10.1% | – | – | – | 5.4% | –
8 | COc1cc([C@@H]2c3cc4c(cc3[C@@H](O[C@@H]3O[C@@H]5CO[C@@H](C)O[C@H]5[C@H](O)[C@H]3O)[C@H]3COC(=O)[C@H]23)OCO4)cc(OC)c1O [Etoposide] | – | – | – | – | 40.9% | 14% | 8.9% | – | activation at 0.08 µM ([1]; test compound at 0.08 uM, NCC library screen, relative to quetiapine, read-out: 0.08 uM (% Quet)): -42.3%
9 | C=C1C[C@@H]2[C@H](CC[C@]3(C)C(=O)CC[C@@H]23)[C@@]2(C)C=CC(=O)C=C12 [Exemestane] | – | – | – | -24.2% | 92.7% | 95.1% | 102% | -57.2% | –
10 | O=C1[C@H](CC[C@H](O)c2ccc(F)cc2)[C@@H](c2ccc(O)cc2)N1c1ccc(F)cc1 [Ezetimibe] | 93.7% | 87.4% | 48.7% | -114% | – | – | – | – | activation at 0.4 µM ([1]; relative to quetiapine): -41.3%
11 | CC(=O)OCC(CCn1cnc2cnc(N)nc21)COC(C)=O [Famciclovir] | 97.6% | 90.6% | 106% | -6.9% | – | – | – | -8.8% | –
12 | NC(N)=Nc1nc(CSCCC(N)=NS(N)(=O)=O)cs1 [Famotidine] | 92.3% | 96.4% | 102% | -2.2% | – | – | – | 17.8% | –
13 | NC(=O)OCC(COC(N)=O)c1ccccc1 [Felbamate] | – | – | – | -1.8% | 92.3% | 95.5% | 91.9% | -7.9% | –
